Measurements: the supplement of paper PMC11616607

Assays:
Assay in all cases: drug sensitivity score (DSS) from 5-point dose-response viability curve (DSS (area-under-curve based score)); higher = more sensitive (stronger growth inhibition or killing); extreme values may be limits of the assay
Conditions in all cases: exposure time: 72 h; concentration range: 5 concentrations over 10,000-fold range
COV318 = test system: COV318
In short: (§1)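 Each cell line and drug received a drug sensitivity score from Breeze software, where higher means more sensitive. Zero stands for no response. Scores came from CellTiter-Glo viability readings of ovarian cancer and normal ovarian cells, 1,500 per well in 384-well plates, after 3 days at 37°C, 5% CO2 with drugs at five concentrations over a 10,000-fold range.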

HOSE1C = test system: HOSE1C
In short: as §1

Ovsaho = test system: Ovsaho
In short: as §1

OVCAR5 = test system: OVCAR5
In short: as §1

HOSE2C = test system: HOSE2C
In short: as §1

OVCAR4 = test system: OVCAR4
In short: as §1

COV362 = test system: COV362
In short: as §1

OV90 = test system: OV90
In short: as §1

Kuramochi = test system: Kuramochi
In short: as §1

JHOS2 = test system: JHOS2
In short: as §1

OVCAR8 = test system: OVCAR8
In short: as §1

CAOV3 = test system: CAOV3
In short: as §1

Row | SMILES | drug sensitivity score (COV318) | drug sensitivity score (HOSE1C) | drug sensitivity score (Ovsaho) | drug sensitivity score (OVCAR5) | drug sensitivity score (HOSE2C) | drug sensitivity score (OVCAR4) | drug sensitivity score (COV362) | drug sensitivity score (OV90) | drug sensitivity score (Kuramochi) | drug sensitivity score (JHOS2) | drug sensitivity score (OVCAR8) | drug sensitivity score (CAOV3)
1 | Cn1nccc1Nc1nccc(-c2ccn([C@H](CO)c3ccc(Cl)c(F)c3)c(=O)c2)n1 [Ravoxertinib] | 0 | 0 | 4.7 | 8.8 | 0 | 0.8 | 0.2 | 13.6 | 4.8 | 3.7 | 6.9 | 6
2 | CNC(=O)c1cc(Oc2ccc(NC(=O)Nc3ccc(Cl)c(C(F)(F)F)c3)c(F)c2)ccn1 [Regorafenib] | 0.6 | 1.6 | 2 | 4.4 | 2.7 | 1.6 | 0.6 | 7.9 | 1.2 | 1.3 | 4.1 | 2
3 | CCOC(=O)C1=CCCC[C@H]1S(=O)(=O)Nc1ccc(F)cc1Cl [Resatorvid] | 0 | 0 | 0 | 0 | 0 | 0 | 0 | 0 | 0 | 0 | 0 | 0
4 | CCOCc1nc2c(N)nc3ccccc3c2n1CC(C)(C)O [Resiquimod] | 0 | 0 | 0.3 | 0.3 | 0 | 0.3 | 0 | 0 | 1.2 | 0.6 | 0 | 0
5 | CN(C)Cc1ccc(S(=O)(=O)n2ccc(/C=C/C(=O)NO)c2)cc1 [Resminostat] | 4.8 | 19.3 | 3.6 | 12.3 | 12 | 3.2 | 2.9 | 9.7 | 5.8 | 5.3 | 11.8 | 8.2
6 | CN(C)C(=O)c1cc2cnc(Nc3ccc(N4CCNCC4)cn3)nc2n1C1CCCC1 [Ribociclib] | 0.2 | 0 | 0 | 2.3 | 0 | 0.6 | 0 | 0.6 | 0 | 2.9 | 0 | 0
7 | CO[C@H]1C[C@@H]2CC[C@@H](C)[C@@](O)(O2)C(=O)C(=O)N2CCCC[C@H]2C(=O)O[C@H]([C@H](C)C[C@@H]2CC[C@@H](OP(C)(C)=O)[C@H](OC)C2)CC(=O)[C@H](C)/C=C(\C)[C@@H](O)[C@@H](OC)C(=O)[C@H](C)C[C@H](C)/C=C/C=C/C=C/1C [Ridaforolimus] | 0.6 | 2.3 | 4.6 | 4.6 | 1 | 2.6 | 0 | 10.3 | 3.2 | 4.3 | 6.8 | 8.7
8 | COc1cc(OC)c(/C=C/S(=O)(=O)Cc2ccc(OC)c(NCC(=O)O)c2)c(OC)c1 [Rigosertib] | 11.7 | 28.4 | 18.9 | 17 | 20.8 | 10.9 | 9.8 | 20.2 | 14.9 | 11.5 | 25.4 | 23.4
9 | C[C@H]1CNCCCN1S(=O)(=O)c1cccc2cncc(F)c12 [Ripasudil] | 0 | 2 | 0 | 0 | 0.6 | 0 | 0 | 0 | 0 | 0 | 0 | 0
10 | C=CC(=O)Nc1cccc(Nc2nc(Nc3ccc(N4CCN(C(C)=O)CC4)cc3OC)ncc2C(F)(F)F)c1 [Rociletinib] | 2.6 | 4.2 | 6.9 | 7.5 | 6.8 | 3 | 3.3 | 5.5 | 3.6 | 2.9 | 5.8 | 7.9
11 | O=C(CCCCCCNC(=O)c1cnc(N(c2ccccc2)c2ccccc2)nc1)NO [Rocilinostat] | 2.7 | 9.3 | 1.9 | 6.9 | 5.7 | 1.4 | 0 | 6 | 3.3 | 1.6 | 7.1 | 5.2
12 | C/C=C1\NC(=O)[C@H]2CSSCC/C=C/[C@H](CC(=O)N[C@H](C(C)C)C(=O)N2)OC(=O)[C@H](C(C)C)NC1=O [Romidepsin] | 12.3 | 39.3 | 25.9 | 33.3 | 35.8 | 20.8 | 11.9 | 29.8 | 27.8 | 22.7 | 28.1 | 28.2
13 | Cc1nc(C(=O)NCC(=O)O)c(O)c2ccc(Oc3ccccc3)cc12 [Roxadustat] | 0 | 0 | 0 | 0 | 0 | 0.3 | 0 | 0 | 0.4 | 0.1 | 0 | 1.3
14 | CN(C)C[C@@H]1CCn2cc(c3ccccc32)C2=C(C(=O)NC2=O)c2cn(c3ccccc23)CCO1 [Ruboxistaurin] | 7.7 | 6.3 | 9.2 | 5.6 | 6.2 | 2.5 | 2.5 | 6.4 | 7.2 | 8.8 | 6.6 | 7
